In patent US12410191B2, “Macrolide derivatives, preparation method and application thereof” (ZHEJIANG HISUN PHARMACEUTICAL CO., LTD., priority 2019, dated 2025):
Read-outs that look alike come from different tables or passages of the source. Each block holds one compound with its values, some of them ahead of it.

Key:
[1] = amide bond, pentafluorophenyl diphenylphosphinate (FDPP), dichloromethane, 25.0 °C
[2] = Pharmacokinetic study on ICR mice; assay type: in vivo
Method: ICR mice, male, 29.0 g to 33.8g, purchased from Beijing Charles River Laboratory Animal Technology Co., Ltd.
Intravenous injection group: an appropriate amount of drug was weighed, and added with mixed solvent (DMA: 30% Solutol HS-15: Saline=10:10:80 (v/v/v)) to prepare the drug with a final concentration of 0.2 mg/mL.
Oral gavage administration group: an appropriate amount of drug was weighed, added with an appropriate amount of sodium carboxymethyl cellulose (CMC-Na, containing 0.5% Tween 80), vortex shaked, and ultrasonically prepared into […] suspension.
For ICR mice, each compound to be tested was divided into an intravenous injection group (9 mice in each group) and an intragastric group (9 mice in each group). The ICR mice were fasted overnight and then administered by orbital intravenous injection (administration dose of 1 mg/kg, and administration volume of 5 mL/kg) and administered by intragastric injection (administration dose of 5 mg/kg, and administration volume of 10 mL/kg), and ate 4 hours after administration. 3. Operation
About 0.2 mL of blood was collected via jugular vein before administration and 0.083 hour, 0.25 hour, 0.5 hour, 1 hour, 2 hours, 4 hours, 8 hours, 12 hours and 24 hours after administration, and heparin sodium was used for anticoagulation. The collected blood samples were placed on ice, and plasma was separated by centrifugation (centrifugation condition: 1500 g, 10 minutes). The collected plasma was stored at −40° C. to −20° C. before analysis.
LC-MS/MS was used to determine the contents of different compounds to be tested in mouse plasma after intravenous injection and intragastric administration.

Compound: C[C@H]1Nc2ccn3ncc(c3n2)C(=O)NCC2(C)Cc3cc(F)cc1c3O2 (stereo partly shown)
ring closure, yield of all isomers ([1]; from C[C@@H](Nc1ccn2ncc(C(=O)O)c2n1)c1cc(F)cc2c1OC(C)(CN)C2, DIPEA, 154.8 mM, 16.0 h): 5.9%

Compound: C[C@H]1Nc2ccn3ncc(c3n2)C(=O)NCC[C@H]2Cc3cc(F)cc1c3O2
ring closure, yield of all isomers ([1]; from C[C@@H](Nc1ccn2ncc(C(=O)O)c2n1)c1cc(F)cc2c1OC(CCN)C2, DIPEA, 33.0 mM, 16.0 h, 2 steps): 23.1%

Compound: C[C@H]1Nc2ccn3ncc(c3n2)C(=O)NCC[C@@]2(C)Cc3cc(F)cc1c3O2
ring closure, yield of all isomers ([1]; from C[C@@H](Nc1ccn2ncc(C(=O)O)c2n1)c1cc(F)cc2c1O[C@@](C)(CCN)C2, N,N-diisopropylethylamine, 131.0 mM): 18.2%

Compound: C[C@H]1Nc2ccn3ncc(c3n2)C(=O)NC[C@@H]2COc3cc(F)cc1c3O2
ring closure, yield of all isomers ([1]; from C[C@@H](Nc1ccn2ncc(C(=O)O)c2n1)c1cc(F)cc2c1O[C@H](CN)CO2, DIPEA, 215.1 mM, 16.0 h): 42%

Compound: C[C@H]1Nc2ccn3ncc(c3n2)C(=O)NCCC2=Cc3cc(F)cc1c3O2
ring closure, yield of all isomers ([1]; from C[C@@H](Nc1ccn2ncc(C(=O)O)c2n1)c1cc(F)cc2cc(CCN)oc12, DIPEA, 172.8 mM, 16.0 h): 25.4%

bioavailability relative to repotrectinib [2]: 4.1 times | AUC0-∞ relative to repotrectinib ([2]; 5 mg/kg oral): 10.6 times | Cmax relative to repotrectinib ([2]; 5 mg/kg oral): 14.7 times
Compound: C[C@H]1Nc2ccn3ncc(c3n2)C(=O)NC[C@@]2(C)Cc3cc(F)cc1c3O2 [Example 8, (3R,11R)-6-fluoro-3,11-dimethyl-10-oxa-2,13,17,18,21-pentaazapentacyclo[13.5.2.1^8,11.0^4,9.0^18,22]tricosa-1(21),4,6,8,15(22),16,19-heptaen-14-one]
ring closure, yield of all isomers ([1]; from C[C@@H](Nc1ccn2ncc(C(=O)O)c2n1)c1cc(F)cc2c1O[C@@](C)(CN)C2, N,N-diisopropylethylamine, 172.0 mM): 26.3%

Compound: C[C@H]1Nc2ccn3ncc(c3n2)C(=O)NC[C@]2(C)Cc3cc(F)cc1c3O2
ring closure, yield of all isomers ([1]; from C[C@@H](Nc1ccn2ncc(C(=O)O)c2n1)c1cc(F)cc2c1O[C@](C)(CN)C2, N,N-diisopropylethylamine, 231.0 mM): 17.6%
